From patent publication US12611459B2, “System and method for unbinding of plasma protein-bound active agents using an ultrasound system” (The Brigham and Women's Hospital, Inc., priority 2019, dated 2026)

What was measured:
[1] = rat, in vivo
Method: In this example the effects of focused ultrasound (FUS) on unbinding phenytoin from albumin was evaluated in an animal model (rat). The enhancement of phenytoin was assessed using immunohistochemistry (IHC) followed by intraperitoneal injection of phenytoin and subsequent sonication of the unilateral hemisphere. All IHC was performed on an automated staining platform. Hematoxylin and eosin (H&E) staining was also performed to assess for tissue hemorrhage. The same sonication parameters and device were used as in the first example described above except the sonication was delivered for 35 minutes.
FUS was delivered to the brain areas in the right hemisphere at a fundamental frequency of 250 kHz in a pulsed manner (55 ms TBD, 4 Hz PRF, at 5 W/cm^2 Isppa) for 35 minutes. FIG. 4 illustrates example mosaic H&E microscope images 402, example, mosaic phenytoin-stained IHC images 404 and example inverted grayscale images 406 of the phenytoin IHC in accordance with an embodiment. […] In the IHC images 404, the dotted ovals 408 indicate the approximate location of the FUS sonication focus (in the right hemisphere of the brain).

[2] = target: bovine serum albumin (BSA) (Bos taurus, UniProt P02769); test: equilibrium dialysis of albumin-phenytoin solution under focused ultrasound (FUS), HPLC of dialysate; type: in vitro ADME; settings: for phenytoin level in dialysate: FUS 250 kHz, 55 ms TBD, 4 Hz PRF, 5 W/cm2 Isppa, 55 min; for elevation of unbound phenytoin level at the focus: p<0.05
Method: The ability of FUS to unbind phenytoin from albumin was assessed in this example by an equilibrium dialysis (ED), whereby the cocktail of albumin-phenytoin was sonicated, and unbound phenytoin was allowed to pass through the membrane to be collected and analyzed. As a part of in vitro testing, a visible dye, Toluidine Blue O, was dissolved in an aqueous solution of albumin and the spatial distribution of the degree of its unbinding from the albumin through the application of FUS was qualitatively evaluated via gel infiltration using agar gel block.
In this example, an in vitro experimental chamber was constructed using a 3D printer (clear resin) to measure the effects of FUS on albumin-phenytoin binding. The chamber includes four slots to place four microdialysis cassettes (7 kMW cut-off pore size; 4×4×0.8 cm; H×L×W) whereby one is placed perpendicular to the sonication focus (‘FF’), and three others are placed away from the focus (‘F01’ through ‘F03’). A FUS transducer having 13 mm focal length (away from the exit plane) and operating at a fundamental frequency of 250 kHz was used to sonicate the middle of the dialysis window (‘FF’). The output pressure wave from the transducer was calibrated for the input signal generator and the acoustic map perpendicular to the sonication axis was mapped using known methods. An identical setup was prepared separately and was not sonicated to provide a control.
In this example, bovine serum albumin (BSA) was dissolved in a phosphate-buffered saline (PBS) (pH7.4) at a concentration of 46 mg/mL concentration, and 200 mL of resulting solution was poured into the chamber. The experiment was conducted at a room temperature (20-21° C.) and the solution temperature was equilibrated at the ambient temperature. The solution was not degassed and kept the ambient gas content (O2 6.1 ppm; measured using dissolved oxygen meter). The wall of the chamber was padded with rubber inserts to absorb the incident acoustic waves to prevent reflection or reverberation within the chamber.
In this example, phenytoin was dissolved (15 μg/mL) in PBS having bovine serum albumin (BSA) concentration of 45 mg/mL to emulate the clinical serum concentration. The temperature of the solution was monitored during the sonication to examine the potential effect from the temperature of the solution on the bound phenytoin. The dialysis cassettes, after hydration according to known methods, were filled with PBS (0.5 ML) and were placed into the bath. Subsequently, sonication was given for 55 min at 250 kHz in pulsed manner (55 ms TBD, 4 Hz PRF, at 5 W/cm2 Isppa Spatial-Peak Pulse-Average Intensity, i.e. 22% duty cycle). The mechanical index (MI) of the focus was 0.8 (corresponding to peak negative pressure of 391 kPa). The temperature of the solution was monitored. […] The obtained samples underwent High Performance Liquid Chromatography (HPLC) for the measurement of phenytoin concentration after the calibration of the known absolute level of the phenytoin. The HPLC system consisted of an autosampler, a dual piston pump, and an electrochemical detector coupled to a guard cell and an analytical cell.

[3] = system: plasma proteins, primarily albumin; settings: cited from earlier work

Chain of bovine serum albumin (BSA) (P02769 25-607): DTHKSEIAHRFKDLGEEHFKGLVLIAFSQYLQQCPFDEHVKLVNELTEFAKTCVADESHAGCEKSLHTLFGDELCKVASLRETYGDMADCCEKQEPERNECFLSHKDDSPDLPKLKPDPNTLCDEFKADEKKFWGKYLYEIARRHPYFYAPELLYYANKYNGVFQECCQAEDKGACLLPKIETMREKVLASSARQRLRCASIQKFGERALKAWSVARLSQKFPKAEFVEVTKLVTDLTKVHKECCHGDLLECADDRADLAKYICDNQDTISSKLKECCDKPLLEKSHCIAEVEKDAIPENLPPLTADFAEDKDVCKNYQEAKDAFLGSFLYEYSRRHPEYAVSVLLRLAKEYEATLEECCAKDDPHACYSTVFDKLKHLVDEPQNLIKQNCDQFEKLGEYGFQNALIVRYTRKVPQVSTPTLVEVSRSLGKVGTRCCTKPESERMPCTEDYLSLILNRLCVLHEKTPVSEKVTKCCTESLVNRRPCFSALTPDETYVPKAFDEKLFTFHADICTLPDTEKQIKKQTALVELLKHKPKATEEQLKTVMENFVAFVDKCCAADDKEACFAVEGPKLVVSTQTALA

SMILES: O=C1NC(=O)C(c2ccccc2)(c2ccccc2)N1 [phenytoin]
- tissue injury or hemorrhage (H&E) [1]: no evidence of tissue injury or hemorrhage
- phenytoin level in dialysate ([2]; at the acoustic focus (FF), n=6): 1.38 ± 0.2 µg/mL
- elevation of unbound phenytoin level at the focus ([2]; compared to outside of focus): ~21.4%
- elevation of unbound phenytoin level at the focus ([2]; compared to the control): approximately 27.7%
- averaged phenytoin level in dialysate ([2]; control chamber (CTRL), not sonicated, n=12): 1.52 ± 0.16 µg/mL
- phenytoin level in dialysate ([2]; outside of focus (FO), n=12): 1.13 ± 0.08 µg/mL
- difference in phenytoin level between control condition and outside of focus ([2]; p>0.1): no significant difference
- fraction available in an unbound state ([3]; at clinical dose): ~12%
- binding level to plasma proteins ([3]; primarily to albumin): approximately 90%
